Results on one compound are retold here after patent US9512176B2, “Age inhibitors” (Centre National de la Recherche Scientifique, priority 2005, dated 2016).

Data set [1] deals with EA.hy 926 cell line. Put plainly: Growth of EA.hy 926 endothelial cells with MG scavengers and/or methylglyoxal (MTT). The format is cell-based, human. As to the method:
The cells used for the test are from the EA.hy 926 cell line, which are endothelial cells obtained by the hybridization of human umbilical vein endothelial cells (HUVECs) with lung cancer cells (A549). The EA.hy 926 endothelial cells are incubated in Dulbecco's modified Eagle's Medium (DMEM) enriched with 10% fetal calf serum. The cells are incubated in 12-well plates. Each well initially contains 100,000 cells. Cell growth is achieved by incubating the cells in 2 ml of culture medium after adding or not adding the various potential inhibitors (1 mM) and/or methylglyoxal (600 μM) for 48 hours at 37° C. in a moist atmosphere with 5% CO2.
The number of cells is evaluated in the following way:
The cells are stained using the (4,5-dimethylthiazol-2-yl)-2,5-diphenyltetrazolium bromide (MTT) assay. MTT penetrates in the cell where it is converted into formazan. The quantity of formazan formed is proportional to the number of living cells.
The results are expressed as a relative percentage of the number of cells after treatment compared to the number of control cells without treatment [100*OD (treated cells)/OD (control cells)]. Detection is carried out by UV/visible spectrophotometry at 570 nm.
Principle: MTT (yellow) penetrates the cell and is converted into an insoluble blue compound, formazan, by cleavage of its tetrazolium rings by the mitochondrial dehydrogenase enzymes of living cells. Formazan is solubilized by isopropanol. The number of cells is proportional to the quantity of formazan formed and its absorbance.

For data set [2], the system named is glyoxalase I. Kind of data set: Glyoxalase I treated with methylglyoxal: non-denaturing electrophoresis and enzymatic activity. It is filed as biochemical. The protocol:
MG reacts with a protein's lysine and arginine residues, thus altering the charges on the modified polypeptide. […] The exposure of glyoxalase I to MG (10 mM) for 24 hours increases the mobility of the protein toward the positive electrode, a change that is consistent with the loss of positive charges from the ε-amino and guanidino groups and the gain of negative charges.
The incubation of glyoxalase I, a key protein in the α-oxoaldehyde detoxification system, in the presence of methylglyoxal, modifies the protein. This modification causes a change in charge and a 50% decrease in enzymatic activity compared to the control.

The structures appear in SMILES notation. Non-standard residues stand in square brackets, D forms with d. Residues, ends and D or L forms follow the SMILES beside them. Dap = NC[C@H](N)C(=O)O

For `CC(C)C[C@H](NC(=O)[C@@H](N)CN)C(=O)O` [example 1, L-DAPA-L-Leu.2HCl] (H-[Dap]-Leu-OH), in data set [1], the “cell survival when incubated with MG” value came out at 81%. Besides, in data set [1] (Homo sapiens, EA.hy 926, scavenger 1 mM + methylglyoxal 600 μM, 48 hours, relative to untreated control cells, MG alone 24, mean of 3 experiments, read-out: Cells + MG scavengers + Methylglyoxal (B)), the viability at 1000 µM came out at 81%. In addition, the “Difference (B) − (A)” value in data set [1] (Table 2, cells with scavenger + MG minus cells with scavenger alone) is −13. The “Cells + MG scavengers (A)” value in data set [1] (scavenger 1 mM, no methylglyoxal, 48 hours, number of cells relative to untreated control cells, mean of 3 experiments) worked out at 94%. For the same compound, the “effect against suppression of cell growth by MG” value in data set [1] (scavenger + methylglyoxal) is on record as “same trend”. Also, in data set [1] (values in brackets), the “difference between number of cells growing with compound and with MG and compound” value is −13. Moreover, the “gain of negative charge of glyoxalase I exposed to MG” value in data set [2] (MG 10 mM, 24 hours, non-denaturing electrophoresis) is on record as “inhibits the gain of negative charge”. Moreover, the “inhibition of glyoxalase I enzymatic activity and structural modification by methylglyoxal” value in data set [2] (MG alone: 50% decrease in enzymatic activity) was “prevents the inhibition exerted by methylglyoxal and protects against structural modifications”.
